# Legend:
# Format in all cases: cell-based, human
# [1] = system: CD8+ T-cells from HLA A2+ healthy donors; test: Priming of CD8+ T-cells from healthy donors, tetramer staining; details: three healthy donors, tetramers, compared to WT peptides
# Description: To generate T-cell peptide lines, CD8 T-cells were purified from the PBMCs of HLA A2+ donors using CD8 microbeads according to the manufacturer's instructions (Miltenyi Biotech, Bergisch Gladbach, Germany). Purified CD8 cells (3×10^6) were co-incubated with autologous CD8neg cells (6-8×10^6) in 24 well plates in 2 mL of T-cell media, but with no IL-15. 25 μM of each peptide was used. The cultures had 50% of the media changed thrice weekly. Tetramer staining was performed as above, using 500,000 cells per tube. Each T-cell line was used in an IFNγ enzyme linked immunosorbent spot (ELISpot) assay with cell lines MDA-MB-231, melanoma MM909.24 and Saos-2. 50,000 T-cells and 15,000 cancer cells were used per well. Incubation was performed for 48 h, and the assay developed according the manufacturer's instructions (Mabtech, Nacka Strand, Sweden).
# CPL assay of CR24 was performed as described above. Candidate peptide agonists were designed using the CR24 CPL and an online algorithm (wsb.warwick.ac.uk/wsbcToolsWebpage/user_cases.php). Priming of CD8 T-cells from healthy donors, tetramer staining and chromium release cytotoxicity assays were performed as described above.
# [2] = system: autologous melanoma cells; test: Chromium release cytotoxicity assay of peptide primed T-cell lines; details: patient 37; compared to WT Melan A peptide primed T-cells
# [3] = system: CD8 T-cells from a renal cell carcinoma (RCC) and chronic lymphocytic leukaemia (CLL) patient; test: Priming of CD8 T-cells from RCC and CLL patients, TAPI-0 assay or tetramer staining; details: primed 28 days
# Excerpt: (§1) (FIG. 14A) CD8 T-cells from a renal cell carcinoma (RCC) and chronic lymphocytic leukaemia (CLL) patient were left unprimed or primed with […] (SEQ ID NO: 80) peptide for 28 days. […] (SEQ ID NO: 80) peptide for 28 days.
# [4] = system: autologous cancer cells; test: Killing of autologous cancer cells by primed CD8s (RCC and CLL patient); details: compared to unprimed T-cells
# Excerpt: as §1
# [5] = system: CD8 T-cells from an acute myeloid leukaemia (AML) patient and two CLL patients; test: Priming of CD8 T-cells from AML and CLL patients, IMP-2 tetramer; details: primed 28 days, versus unprimed
# [6] = system: CLL cells; test: Killing assay with primed T-cells from CLL patient 3; details: compared to IMP-2 primed CD8s
# Excerpt: as §1
Sequence,"priming of Melan A, BST2 and IMP2 T-cells [1]","priming of Melan A, BST2 and IMP2 T-cells ([1]; listed as MTSAIGVLVP)",lysis of autologous melanoma cells by primed T-cells [2],MTSAIGILPV specific T-cells after priming [3],killing of autologous cancer cells by primed CD8s [4],proportion of IMP-2 specific T-cells after priming [5],killing of CLL cells by primed T-cells [6]
ITSAIGILPV (listed as Homo sapiens) [APL 2],exhibiting effect across each donor,,,,,,
MTSAIGILPV (listed as Homo sapiens) [APL 5],most effective super-agonist,most effective of the candidate super-agonists at priming,superior lysis,presence,killed more autologous cancer cells than the unprimed T-cells,induced a greater proportion of IMP-2 cells,killed more CLL cells than the IMP-2 primed CD8s

# Reference: patent US12053513B2, “Cancer-specific T-cell receptors” (UNIVERSITY COLLEGE CARDIFF CONSULTANTS LTD., priority 2018, dated 2024)
